Experimental data: publication PMC12486850, “Dual mechanism of the OXA-23 carbapenemase inhibition by the carbapenem NA-1-157” (Antimicrobial Agents and Chemotherapy, 2025)

How the values were obtained:
OXA-23 [1] = biological target: T1, OXA-23 (Acinetobacter baumannii, UniProt Q9L4P2); test: time-resolved crystal structures ([…] min soaks), ESI-LC/MS, nitrocefin competition kinetics; format: biochemical
T1 construct: 5'-truncated (54 bp) E. coli-optimized blaOXA-23 gene

OXA-23 [2] = biological target: T1, OXA-23; test: crystal structure of the acyl-enzyme complex ([…] min soak, […] meropenem); format: binding

T1 sequence (Q9L4P2 19-273): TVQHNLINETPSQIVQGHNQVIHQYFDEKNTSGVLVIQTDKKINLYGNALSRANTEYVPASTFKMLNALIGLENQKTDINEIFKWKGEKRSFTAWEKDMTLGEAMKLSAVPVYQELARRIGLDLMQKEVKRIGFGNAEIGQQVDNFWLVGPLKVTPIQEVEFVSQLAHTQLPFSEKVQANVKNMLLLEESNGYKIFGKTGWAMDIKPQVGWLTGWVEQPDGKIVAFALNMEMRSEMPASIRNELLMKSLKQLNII

Structure (SMILES)	Ki (OXA-23 [1]) [nM]	crystal structure of the acyl-enzyme complex (6 min soak, 20 mM meropenem) (OXA-23 [2])
C[C@@H](O)[C@H]1C(=O)N2C(C(=O)O)=C(S[C@@H]3CN[C@H](C(=O)N(C)C)C3)C[C@]12C [NA-1-157]	590 ± 20	–
C[C@@H](O)[C@H]1C(=O)N2C(C(=O)O)=C(S[C@@H]3CN[C@H](C(=O)N(C)C)C3)[C@H](C)[C@H]12 [meropenem]	–	In the OXA-23–meropenem acyl-enzyme complex, meropenem is covalently attached to the Ser70 side chain
